Data taken from patent publication US8598210B2, “Prolyl hydroxylase inhibitors and methods of use” (Akebia Therapeutics Inc., priority 2006, dated 2013).

How the values were obtained:
[1] = biological target: Full-length recombinant human EGLN-3 (His-MBP-TVMV-EGLN-3 fusion) (Homo sapiens (Human), UniProt Q9H6Z9); assay: EGLN-3 enzyme activity assay (MALDI-TOF MS); type: biochemical; details: read-out: EGLIN3 IC50
Method: (§1) Hydroxylated peptide product is identified from substrate by the gain of 16 Da. Data defined as percent conversion of substrate to product is analyzed in GraphPad Prism 4 to calculate IC50 values.

[2] = test system: EPO; assay: Mouse Serum EPO Assay (mouse ischemic hindlimb study); type: in vivo; details: for EPO response: in vivo response
Method: (§2) Mouse Ischemic Hindlimb Study
(§3) All animal work is conducted in accordance with the Guide for the Care and Use of Laboratory Animals (National Academy of Sciences; Copyright© 1996) and the Institutional Animal Care and Use Committee guidelines at Procter and Gamble Pharmaceuticals. We studied 9-10 week old male C57B1/6 mice from Charles River Laboratory (Portage, Mich.). The mice are orally dosed with vehicle (aqueous carbonate buffer, 50 mM; pH 9.0) or compound 1 in vehicle at 50 mg/kg or 100 mg/kg. The animals are dosed three times: day 1 at 8 am and 5 pm, day 2 at 8 am. One hour after the first dose, unilateral arterial ligation is performed under anesthesia using isoflurane. The femoral artery is ligated proximal to the origin of the popliteal artery. The contralateral limb underwent a sham surgical procedure. Ligation is performed in an alternating fashion between right and left hindlimbs. Two hours after 8 am dosing on day 2, we obtained blood by ventricular stick while the mice are anesthetized with isoflurane. Serum samples for EPO analysis are obtained using gel clot serum separation tubes. Heart, liver, and gastrocnemius muscles are harvested, snap-frozen in liquid nitrogen, and stored in −80° C. until use.
The mouse serum EPO is detected using Mouse Quantikine Erythropoietin ELISA kit from R&D Systems according to manufacturer's instructions.

[3] = biological target: Recombinant human EGLN-1-179/426 (Homo sapiens (Human), UniProt Q9GZT9); assay: EGLN-1 Activity Assay (MALDI-TOF MS); type: biochemical; details: read-out: EGLIN1 IC50
Recombinant human EGLN-1-179/426, sequence (Q9GZT9 179-426): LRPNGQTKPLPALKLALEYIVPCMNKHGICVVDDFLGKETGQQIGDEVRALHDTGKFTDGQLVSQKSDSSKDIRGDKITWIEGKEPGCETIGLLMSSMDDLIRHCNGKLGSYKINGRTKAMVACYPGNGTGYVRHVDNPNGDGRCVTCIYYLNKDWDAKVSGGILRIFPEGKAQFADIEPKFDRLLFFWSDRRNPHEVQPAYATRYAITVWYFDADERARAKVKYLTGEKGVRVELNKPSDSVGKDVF
Method: as §1

[4] = test system: HIF-1α; assay: Mouse Tissue HIF Western Blot Analysis; type: in vivo; details: FIG. 1; immunoblot analysis of nuclear extracts
Method: as §2, §3
Mouse Tissue HIF Western Blot Analysis
Tissues from mice stored at −80° C. are powdered with mortar and pestle chilled with liquid nitrogen. […]

Full-length recombinant human EGLN-3 (His-MBP-TVMV-EGLN-3 fusion), sequence (Q9H6Z9 whole entry, the tested form may be a part): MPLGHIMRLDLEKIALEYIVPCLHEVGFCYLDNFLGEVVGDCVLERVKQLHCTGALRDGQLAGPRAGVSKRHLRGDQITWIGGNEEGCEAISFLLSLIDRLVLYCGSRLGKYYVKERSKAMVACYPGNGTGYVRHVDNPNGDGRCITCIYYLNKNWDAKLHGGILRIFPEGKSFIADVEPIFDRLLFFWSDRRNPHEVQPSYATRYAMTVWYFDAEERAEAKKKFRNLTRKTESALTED

Row | Compound | IC50 [1] | EPO response [2] | IC50 [3] | further results
1 | N#Cc1ccc(-c2cnc(C(=O)NCC(=O)O)c(O)c2)cc1 [{[5-(4-Cyanophenyl)-3-hydroxypyridine-2-carbonyl]amino}-acetic acid] | 560 nM | yes |  | 
2 | COC(=O)CNC(=O)c1ncc(-c2ccccc2Cl)cc1O [{[5-(2-Chloro-phenyl)-3-hydroxy-pyridine-2-carbonyl]-amino}-acetic acid methyl ester] | 37500 nM | yes |  | 
3 | {[5-(4-Chlorophenyl)-3-hydroxypyridine-2-carbonyl]amino}-acetic acid | 83 nM | yes |  | 
4 | O=C(O)CNC(=O)c1ncc(-c2cccc(C(=O)N3CCCC3)c2)cc1O [({3-Hydroxy-5-[3-(pyrrolidine-1-carbonyl)phenyl]-pyridine-2-carbonyl}amino)-acetic acid] |  |  | 300 nM | 
5 | COC(=O)CNC(=O)c1ncc(-c2cccc(C(N)=O)c2)cc1O [{[5-(3-Carbamoyl-phenyl)-3-hydroxy-pyridine-2-carbonyl]-amino}-acetic acid methyl ester] |  |  | 11200 nM | 
6 | CC(C)c1ccc(-c2cnc(C(=O)NCC(=O)O)c(O)c2)cc1 [{[5-(4-Isopropylphenyl)-3-hydroxypyridine-2-carbonyl]amino}-acetic acid] |  |  | 440 nM | 
7 | Cc1ccc(-c2cnc(C(=O)NCC(=O)O)c(O)c2)cc1 [[(3-Hydroxy-5-(4-methylphenyl)pyridine-2-carbonyl)amino]-acetic acid] | 180 nM | yes |  | 
8 | COC(=O)CNC(=O)c1ncc(-c2cccc(Cl)c2)cc1O [{[5-(3-chloro-phenyl)-3-hydroxy-pyridine-2-carbonyl]-amino}-acetic acid methyl ester] | 21400 nM | yes | 2800 nM | 
9 | COC(=O)CNC(=O)c1ncc(-c2ccc(Cl)cc2)cc1O [{[5-(4-Chloro-phenyl)-3-hydroxy-pyridine-2-carbonyl]-amino}-acetic acid methyl ester] |  |  | 3700 nM | 
10 | COC(=O)CNC(=O)c1ncc(-c2ccc(C)cc2)cc1O [[(3-Hydroxy-5-(4-methylphenyl)-pyridine-2-carbonyl)-amino]-acetic acid methyl ester] | 52300 nM |  | 4100 nM | 
11 | O=C(O)CNC(=O)c1ncc(-c2cccc(Cl)c2)cc1O [{[5-(3-Chlorophenyl)-3-hydroxypyridine-2-carbonyl]amino}-acetic acid] |  | yes |  | erythropoietin level versus vehicle in mouse serum ([2]; FIG. 2, after oral dosing): elevated; stabilization of HIF-1α in mouse liver [4]: stabilization
12 | O=C(O)CNC(=O)c1ncc(-c2cccc(-c3nn[nH]n3)c2)cc1O [({3-Hydroxy-5-[3-(2H-tetrazol-5-yl)phenyl]-pyridine-2-carbonyl}-amino)-acetic acid] |  |  | 400 nM | 
13 | N#Cc1cccc(-c2cnc(C(=O)NCC(=O)O)c(O)c2)c1 [{[5-(3-Cyanophenyl)-3-hydroxypyridine-2-carbonyl]amino}-acetic acid] |  |  | 190 nM | 
14 | O=C(O)CNC(=O)c1ncc(-c2ccccc2Cl)cc1O [{[5-(2-Chlorophenyl)-3-hydroxypyridine-2-carbonyl]amino}-acetic acid] | 390 nM | yes |  | 
15 | Cc1ccc(Cl)cc1-c1cnc(C(=O)NCC(=O)O)c(O)c1 [{[5-(2-Methyl-5-chlorophenyl)-3-hydroxypyridine-2-carbonyl]amino}-acetic acid] |  |  | 2500 nM | 
16 | Cc1ccc(-c2ccc(C(=O)NCC(=O)O)c(O)c2)cc1 [[(3-Hydroxy-4′-methyl-biphenyl-4-carbonyl)-amino]-acetic acid] |  | yes | 20000 nM | 
17 | CC(C)Oc1ccc(-c2cnc(C(=O)NCC(=O)O)c(O)c2)cc1 [{[5-(4-Isopropoxyphenyl)-3-hydroxypyridine-2-carbonyl]amino}-acetic acid] |  |  | 1600 nM | 
18 | COC(=O)CNC(=O)c1ncc(-c2cccc(C(=O)N3CCCC3)c2)cc1O [({3-Hydroxy-5-[3-(pyrrolidine-1-carbonyl)-phenyl]-pyridine-2-carbonyl}-amino)-acetic acid methyl ester] |  |  | 2500 nM | 
